Reference: ChEMBL document CHEMBL1129767, “Synthesis and properties of 25 and 35 linked -oligoriboadenylates” (Bioorg Med Chem Lett, 1996)

Experiments:
Format in all cases: ADME
[1] = Biological half life period of compound was measured against snake venom phosphodiesterase (SVPDE); details: serpentes
[2] = Biological half life period of compound was measured against nuclease P1.
[3] = Biological half life period of compound was measured against RNaseT2.; details: RNase T2
[4] = Biological half life period of compound was measured against RNaseT2; N C: Not cleaved
[5] = Biological half life period of compound was measured against nuclease P1;NC: Not cleaved
[6] = Biological half life period of compound was measured against RNaseT2; NC: Not cleaved

Structure (SMILES)	half-life [1] [min]	half-life [2] [min]	half-life [3] [min]	T1/2 [4]	T1/2 [5]	T1/2 [6]
Nc1ncnc2c1ncn2C1O[C@H](COP(=O)(O)O[C@H]2[C@@H](O)[C@H](n3cnc4c(N)ncnc43)O[C@@H]2CO)[C@@H](O)[C@H]1O (some centres not stated)	3.6	7.8	12.6			
Nc1ncnc2c1ncn2C1O[C@H](COP(=O)(O)O[C@@H]2[C@H](O)[C@@H](CO)O[C@H]2n2cnc3c(N)ncnc32)[C@@H](O)[C@H]1O (some centres not stated)	3.6			Not cleaved	Not cleaved	
Nc1ncnc2c1ncn2C1OC(COP(=O)(O)O[C@@H]2C(CO)O[C@H](n3cnc4c(N)ncnc43)[C@@H]2O)[C@@H](O)[C@H]1O (single isomer, unassigned)	31.8	120		Not cleaved		
Nc1ncnc2c1ncn2C1OC(COP(=O)(O)O[C@@H]2[C@H](O)[C@@H](CO)O[C@@H]2n2cnc3c(N)ncnc32)[C@@H](O)[C@H]1O (single isomer, unassigned)	18				Not cleaved	Not cleaved
